This is an account of results in ChEMBL document CHEMBL1146381, “Synthesis, stereochemistry and antimicrobial evaluation of t(3)-benzyl-r(2),c(6)-diarylpiperidin-4-one and its derivatives” (2007).

Structures are written as SMILES. Converted amounts (≈) assume the structure as drawn.

What all share (format): functional
The subject of one assay is Klebsiella pneumoniae. Put plainly: Antibacterial activity against Klebsiella pneumoniae.
Assay [1] relates to Candida. Description: Antifungal activity against Candida 51.
For another assay, the system named is Aspergillus flavus. Description: Antifungal activity against Aspergillus flavus.
For the next assay, the system named is Pseudomonas aeruginosa. Description: Antibacterial activity against Pseudomonas aeruginosa.
The test system of the next assay is Aspergillus niger. Put plainly: Antifungal activity against Aspergillus niger.
The subject of a further assay is Escherichia coli. Description: Antibacterial activity against Escherichia coli.
For assay [2], the system named is Candida. Description: Antifungal activity against Candida 6.
A further assay concerns Cryptococcus neoformans. Put plainly: Antifungal activity against Cryptococcus neoformans.
Another assay deals with Bacillus subtilis. Put plainly: Antibacterial activity against Bacillus subtilis.
A further assay deals with Enterococcus faecalis. Description: Antibacterial activity against Streptococcus faecalis.

For `O=C1CC(c2ccco2)NC(c2ccco2)C1Cc1ccccc1` (stereo not drawn), the MIC – broadly, the lowest concentration found to suppress growth – in the assay with Klebsiella pneumoniae came to 12.5 µg/mL (≈ 38.9 µM); in the assay on Candida [1], 25 µg/mL (≈ 77.8 µM); against Aspergillus flavus, 50 µg/mL (≈ 156 µM); in the assay on Pseudomonas aeruginosa, 25 µg/mL (≈ 77.8 µM); with Aspergillus niger, 50 µg/mL (≈ 156 µM); in the assay with Escherichia coli it was 12.5 µg/mL (≈ 38.9 µM). In addition, the MIC with Candida [2] came to 25 µg/mL (≈ 77.8 µM); in the assay with Cryptococcus neoformans, 25 µg/mL (≈ 77.8 µM); in the assay on Bacillus subtilis, 50 µg/mL (≈ 156 µM); in the assay with Enterococcus faecalis it was 12.5 µg/mL (≈ 38.9 µM).
For the molecule `O/N=C1\CC(c2ccco2)NC(c2ccco2)C1Cc1ccccc1` (stereo not drawn), the MIC was 6.25 µg/mL (≈ 18.6 µM) in the assay on Klebsiella pneumoniae; 12.5 µg/mL (≈ 37.2 µM) with Candida [1]; 25 µg/mL (≈ 74.3 µM) in the assay on Aspergillus flavus; 12.5 µg/mL (≈ 37.2 µM) in the assay with Pseudomonas aeruginosa; 6.25 µg/mL (≈ 18.6 µM) against Aspergillus niger; 12.5 µg/mL (≈ 37.2 µM) against Escherichia coli. For the same molecule, the MIC against Candida [2] worked out at 25 µg/mL (≈ 74.3 µM); against Cryptococcus neoformans, 6.25 µg/mL (≈ 18.6 µM); against Bacillus subtilis, 25 µg/mL (≈ 74.3 µM); against Enterococcus faecalis, 12.5 µg/mL (≈ 37.2 µM).
On to `O=C1CC(c2ccccc2)NC(c2ccccc2)C1Cc1ccccc1` (stereo not drawn), for which the MIC in the assay on Klebsiella pneumoniae turned out to be 100 µg/mL (≈ 293 µM); in the assay on Candida [1], 50 µg/mL (≈ 146 µM); with Aspergillus flavus, 50 µg/mL (≈ 146 µM); in the assay with Aspergillus niger, 100 µg/mL (≈ 293 µM); in the assay with Escherichia coli, 12.5 µg/mL (≈ 36.6 µM); in the assay with Candida [2], 50 µg/mL (≈ 146 µM). For the same molecule, the results for the MIC against Bacillus subtilis and against Enterococcus faecalis were 12.5 µg/mL (≈ 36.6 µM) and 50 µg/mL (≈ 146 µM), respectively.
Consider `O/N=C1\CC(c2ccccc2)NC(c2ccccc2)C1Cc1ccccc1` (stereo not drawn), for which the MIC in the assay on Klebsiella pneumoniae turned out to be 12.5 µg/mL (≈ 35.1 µM); in the assay on Candida [1] it was 12.5 µg/mL (≈ 35.1 µM); against Aspergillus flavus, 50 µg/mL (≈ 140 µM); in the assay on Pseudomonas aeruginosa, 25 µg/mL (≈ 70.1 µM); with Aspergillus niger, 100 µg/mL (≈ 281 µM); against Escherichia coli, 12.5 µg/mL (≈ 35.1 µM). For the same molecule, the MIC is 50 µg/mL (≈ 140 µM) in the assay on Candida [2], 25 µg/mL (≈ 70.1 µM) in the assay with Cryptococcus neoformans, 25 µg/mL (≈ 70.1 µM) against Bacillus subtilis and 25 µg/mL (≈ 70.1 µM) against Enterococcus faecalis.
On to `O=CN1C(c2ccccc2)CC(=O)C(Cc2ccccc2)C1c1ccccc1` (stereo not drawn), for which the MIC is 6.25 µg/mL (≈ 16.9 µM) against Klebsiella pneumoniae; 12.5 µg/mL (≈ 33.8 µM) in the assay with Candida [1]; 25 µg/mL (≈ 67.7 µM) against Aspergillus flavus; 12.5 µg/mL (≈ 33.8 µM) against Pseudomonas aeruginosa; 50 µg/mL (≈ 135 µM) in the assay with Aspergillus niger; 25 µg/mL (≈ 67.7 µM) against Escherichia coli. The MIC came out at 25 µg/mL (≈ 67.7 µM) with Candida [2], 12.5 µg/mL (≈ 33.8 µM) in the assay on Cryptococcus neoformans, 25 µg/mL (≈ 67.7 µM) against Bacillus subtilis and 25 µg/mL (≈ 67.7 µM) against Enterococcus faecalis.
Regarding `O=CN1C(c2ccccc2)C/C(=N\O)C(Cc2ccccc2)C1c1ccccc1` (stereo not drawn), the MIC turned out to be 6.25 µg/mL (≈ 16.3 µM) with Klebsiella pneumoniae; 12.5 µg/mL (≈ 32.5 µM) against Candida [1]; 12.5 µg/mL (≈ 32.5 µM) against Aspergillus flavus; 50 µg/mL (≈ 130 µM) in the assay on Pseudomonas aeruginosa; 25 µg/mL (≈ 65 µM) with Aspergillus niger; 25 µg/mL (≈ 65 µM) with Escherichia coli. Further, the minimal inhibitory concentration (MIC) against Candida [2] was 12.5 µg/mL (≈ 32.5 µM); against Cryptococcus neoformans it was 6.25 µg/mL (≈ 16.3 µM); against Bacillus subtilis, 25 µg/mL (≈ 65 µM); against Enterococcus faecalis it was 25 µg/mL (≈ 65 µM).
As to `C[C@@H]1[C@H](O)[C@@H](C)/C=C/C=C/C=C/C=C/C=C/C=C/C=C/[C@H](O[C@@H]2O[C@H](C)[C@@H](O)[C@H](N)[C@@H]2O)C[C@@H]2O[C@](O)(C[C@@H](O)C[C@@H](O)[C@H](O)CC[C@@H](O)C[C@@H](O)CC(=O)O[C@H]1C)C[C@H](O)[C@H]2C(=O)O` [AMPHOTERICIN B], the MIC in the assay with Candida [1] was 25 µg/mL (≈ 27.1 µM); in the assay on Aspergillus flavus, 50 µg/mL (≈ 54.1 µM); in the assay with Aspergillus niger, 50 µg/mL (≈ 54.1 µM); against Candida [2], 25 µg/mL (≈ 27.1 µM); in the assay with Cryptococcus neoformans, 25 µg/mL (≈ 27.1 µM).
With `CN[C@@H]1[C@H](O[C@H]2[C@H](O[C@H]3[C@H](O)[C@@H](O)[C@H](N=C(N)N)[C@@H](O)[C@@H]3N=C(N)N)O[C@@H](C)[C@]2(O)C=O)O[C@@H](CO)[C@H](O)[C@H]1O` [STREPTOMYCIN], the minimum inhibitory concentration (MIC) turned out to be 25 µg/mL (≈ 43 µM) in the assay on Klebsiella pneumoniae; 25 µg/mL (≈ 43 µM) against Pseudomonas aeruginosa; 12.5 µg/mL (≈ 21.5 µM) in the assay with Escherichia coli; 12.5 µg/mL (≈ 21.5 µM) against Bacillus subtilis; 50 µg/mL (≈ 86 µM) in the assay on Enterococcus faecalis.
